Data as given in ChEMBL document CHEMBL4811295, “The ester derivatives obtained by C-ring modification of podophyllotoxin induce apoptosis and inhibited proliferation in PC-3M cells via down-regulation of PI3K/Akt signaling pathway” (Bioorg Med Chem Lett, 2021).

Assays:
Format in all cases: functional, cell-based
PC-3M = assay: Cytotoxicity in human PC-3M cells assessed as inhibition of cell proliferation measured by CCK-8 assay
HMEC = assay: Cytotoxicity in human HMEC cells assessed as inhibition of cell proliferation measured by CCK-8 assay
A549 = assay: Cytotoxicity in human A549 cells assessed as inhibition of cell proliferation measured by CCK-8 assay
MCF7 = assay: Cytotoxicity in human MCF7 cells assessed as inhibition of cell proliferation measured by CCK-8 assay
HepG2 = assay: Cytotoxicity in human HepG2 cells assessed as inhibition of cell proliferation measured by CCK-8 assay

| Compound | IC50 (PC-3M) | IC50 (HMEC) | IC50 (A549) | IC50 (MCF7) | IC50 (HepG2) |
| --- | --- | --- | --- | --- | --- |
| COc1cc([C@@H]2c3cc4c(cc3[C@H](OC(=O)[C@@H](NC(=O)OC(C)(C)C)C(C)C)[C@H]3COC(=O)[C@H]23)OCO4)cc(OC)c1OC | 2.52 µM | 2.44 µM | 11.2 µM | 89.1 µM | 10.9 µM |
| C/C=C/C(=O)O[C@H]1c2cc3c(cc2[C@@H](c2cc(OC)c(OC)c(OC)c2)[C@H]2C(=O)OC[C@@H]21)OCO3 | 0.0124 µM | 0.0795 µM | 0.0402 µM | 80.9 µM | 109 µM |
| COc1cc([C@@H]2c3cc4c(cc3[C@H](OC(=O)c3ccncc3)[C@H]3COC(=O)[C@H]23)OCO4)cc(OC)c1OC [4-O-PODOPHYLLOTOXINYL-ISONICOTINATE] | 0.0926 µM | 3.72 µM | 0.0163 µM | > 200 µM | 188 µM |
| COc1cc([C@@H]2c3cc4c(cc3[C@H](OC(=O)[C@H](CC(C)C)NC(=O)OC(C)(C)C)[C@H]3COC(=O)[C@H]23)OCO4)cc(OC)c1OC | 0.00898 µM | 2.37 µM | 6.44 µM | 140 µM | 60.3 µM |
| CCCCCCCCCCCC(=O)O[C@H]1c2cc3c(cc2[C@@H](c2cc(OC)c(OC)c(OC)c2)[C@H]2C(=O)OC[C@@H]21)OCO3 | 1.25 µM | 0.936 µM | 0.539 µM | > 200 µM | 53.1 µM |
| CC[C@H](C)[C@H](NC(=O)OC(C)(C)C)C(=O)O[C@H]1c2cc3c(cc2[C@@H](c2cc(OC)c(OC)c(OC)c2)[C@H]2C(=O)OC[C@@H]21)OCO3 | 1.07 µM | 4.48 µM | 7.96 µM | 69.9 µM | 0.866 µM |
| COc1cc([C@@H]2c3cc4c(cc3[C@H](OC(=O)c3sccc3Cl)[C@H]3COC(=O)[C@H]23)OCO4)cc(OC)c1OC | 0.965 µM | 0.116 µM | 0.155 µM | > 200 µM | 149 µM |
| COc1cc([C@@H]2c3cc4c(cc3[C@H](OC(=O)CN(C)C(=O)OC(C)(C)C)[C@H]3COC(=O)[C@H]23)OCO4)cc(OC)c1OC | 0.0132 µM | 27.8 µM | 0.043 µM |  |  |
| CCCCCCCCCCCCCCCC(=O)O[C@H]1c2cc3c(cc2[C@@H](c2cc(OC)c(OC)c(OC)c2)[C@H]2C(=O)OC[C@@H]21)OCO3 | 2.3 µM | 5.38 µM | 4.59 µM | > 200 µM | 117 µM |
| COc1cc([C@@H]2c3cc4c(cc3[C@H](OC(=O)[C@H](CCSC)NC(=O)OC(C)(C)C)[C@H]3COC(=O)[C@H]23)OCO4)cc(OC)c1OC | 0.00511 µM | 2.6 µM | 1.03 µM | 93.1 µM | 51 µM |
